In PMC6152134, “Synthesis and In Vitro Anticancer Activity of Novel Dehydroabietic Acid-Based Acylhydrazones” (Molecules : A Journal of Synthetic Chemistry and Natural …, 2017):

Assays:
[1] = system: CNE-2 (nasopharynx) human carcinoma cell line; assay: MTT cytotoxicity assay, CNE-2 cells; format: cell-based; conditions: 48 h exposure
Description: (§1) Compounds 4a–x were evaluated for their cytotoxic activity in vitro against the human cancer cell lines, CNE-2, HepG2, HeLa, and BEL-7402 by using a 3-(4,5-dimethylthiazol-2-yl)-2,5-diphenyl tetrazolium bromide (MTT) colorimetric assay. Cisplatin was included in the experiments as a positive control, and the IC50 of DHA is also presented to compare the anticancer activities. The calculated IC50 values were reported differently according to the different cancer cells.
(§2) The CNE-2, HepG2, HeLa, and BEL-7402 cell lines used in this work were all purchased from the Institute of Biochemistry and Cell Biology, China Academy of Sciences. All were supplemented with 10% heat-inactivated fetal bovine serum in a humidified atmosphere of 5% CO2/95% air at 37 °C. In order to investigate the potential of compounds 4, cisplatin, a commercial classical anticancer drug was used as a reference drug. CNE-2, HepG2, HeLa, and BEL-7402 cells were seeded into 96-well microculture plates and allowed to adhere for 24 h, respectively. After cells were exposed to compounds at concentrations from 100 to 0.1 μM for 48 h, medium was aspirated and replenished with complete medium. IC50 values was evaluated by MTT tetrazolium dye assay. All the tests were repeated in at least three independent experiments. The IC50 values of the compounds were calculated using SPSS Version 10 software (IBM, New York, NY, USA), which defined the IC50 value as the concentration required to inhibit cell growth by 50%.

[2] = system: HepG2 (liver) human carcinoma cell line; assay: MTT cytotoxicity assay, HepG2 cells; format: cell-based; conditions: 48 h exposure
Description: as §1, §2

[3] = system: HeLa (epithelial cervical) human carcinoma cell line; assay: MTT cytotoxicity assay, HeLa cells; format: cell-based; conditions: 48 h exposure
Description: as §1, §2

[4] = system: BEL-7402 (liver) human carcinoma cell line; assay: MTT cytotoxicity assay, BEL-7402 cells; format: cell-based; conditions: 48 h exposure
Description: as §1, §2

[5] = system: HL-7702 normal human liver cell line; assay: MTT cytotoxicity assay, HL-7702 normal liver cells; format: cell-based
[6] = system: human promyelocytic leukemic cells (HL-60); set-up: method as in PMID 20884091; conditions: read-out: IC50 against HL-60; cited from earlier work
[7] = L02, normal human liver cell HL-7702

melting point	SMILES	IC50 ([1]; Homo sapiens)	IC50 ([2]; Homo sapiens, HepG2, 48 h)	IC50 ([3]; Homo sapiens, HeLa, 48 h)	IC50 ([4]; Homo sapiens)	IC50 [5, 7]	IC50 [6]	IC50 [1]	IC50 [2]	IC50 [3]	IC50 [4]	IC50 ([5]; normal human liver cell HL-7702)
169.2 to 170.5 °C	CC(C)c1ccc2c(c1)CCC1C(C)(C(=O)OCC(=O)NN=Cc3ccc(F)cc3)CCCC21C (stereo not drawn) [4s]	49.81 ± 0.49 µM	90.08 ± 0.33 µM	28.79 ± 0.24 µM	25.22 ± 0.22 µM	> 100 µM						
150.2 to 153.5 °C	CC(C)c1ccc2c(c1)CCC1C(C)(C(=O)OCC(=O)NN=Cc3cccc(F)c3F)CCCC21C (stereo not drawn) [4t]	33.3 ± 0.56 µM	22.89 ± 0.04 µM	11.1 ± 0.15 µM	18.8 ± 0.59 µM	72 ± 1.66 µM						
181.9 to 184.5 °C	CC(C)c1ccc2c(c1)CCC1C(C)(C(=O)OCC(=O)NN=Cc3ccc(F)cc3F)CCCC21C (stereo not drawn) [4u, N’-(2,4-Difluorobenzylidene)-2-(dehydroabietyloxy)acetohydrazide]	32.83 ± 0.16 µM	25.4 ± 0.54 µM	5.86 ± 0.09 µM	18.6 ± 0.37 µM	55.8 ± 1.38 µM						
107.3 to 110 °C	CC(C)c1ccc2c(c1)CCC1C(C)(C(=O)OCC(=O)NN=Cc3c(F)cccc3F)CCCC21C (stereo not drawn) [4v]	26.8 ± 0.46 µM	16.9 ± 0.18 µM	15 ± 0.21 µM	20.5 ± 0.53 µM	44.6 ± 2.02 µM						
182.6 to 186.6 °C	CC(C)c1ccc2c(c1)CCC1C(C)(C(=O)OCC(=O)NN=Cc3cc(F)cc(F)c3)CCCC21C (stereo not drawn) [4w]	15.4 ± 0.21 µM	12.07 ± 0.07 µM	2.21 ± 0.04 µM	14.5 ± 0.22 µM	66.1 ± 1.84 µM						

More lines, now with the values behind:

SMILES	melting point	IC50 ([1]; Homo sapiens)	IC50 ([2]; Homo sapiens, HepG2, 48 h)	IC50 ([3]; Homo sapiens, HeLa, 48 h)	IC50 ([4]; Homo sapiens)	IC50 [5, 7]	IC50 [6]	IC50 [1]	IC50 [2]	IC50 [3]	IC50 [4]	IC50 ([5]; normal human liver cell HL-7702)
COc1ccccc1C=NNC(=O)COC(=O)C1(C)CCCC2(C)c3ccc(C(C)C)cc3CCC12 (stereo not drawn) [4n]	190.3 to 191.8 °C	26.08 ± 0.05 µM	50.1 ± 0.74 µM	45.13 ± 0.09 µM	23.8 ± 0.51 µM	70.4 ± 2.23 µM						
COc1cccc(C=NNC(=O)COC(=O)C2(C)CCCC3(C)c4ccc(C(C)C)cc4CCC23)c1 (stereo not drawn) [4o]	136.7 to 137.9 °C	86.46 ± 0.13 µM	51.3 ± 0.63 µM	32.06 ± 0.21 µM	14.8 ± 0.38 µM	> 100 µM						
COc1ccc(C=NNC(=O)COC(=O)C2(C)CCCC3(C)c4ccc(C(C)C)cc4CCC23)cc1 (stereo not drawn) [4p, N’-(4-Methoxybenzylidene)-2-(dehydroabietyloxy)acetohydrazide]	174.8 to 175.5 °C	56.98 ± 0.08 µM	48.59 ± 0.09 µM	34.33 ± 0.32 µM	55.29 ± 0.44 µM	91.8 ± 1.57 µM						
CC(C)c1ccc2c(c1)CCC1C(C)(C(=O)OCC(=O)NN=Cc3ccccc3F)CCCC21C (stereo not drawn) [4q, Dehydroabietic acid-based 2-fluorophenyl acylhydrazone]	130.2 to 130.5 °C	27.4 ± 0.72 µM	93.76 ± 0.39 µM	27.71 ± 0.14 µM	22.8 ± 0.34 µM	> 100 µM						
CC(C)c1ccc2c(c1)CCC1C(C)(C(=O)OCC(=O)NN=Cc3cccc(F)c3)CCCC21C (stereo not drawn) [4r]	166 to 167.3 °C	51 ± 0.94 µM	31.6 ± 0.47 µM	12.8 ± 0.13 µM	25.9 ± 0.53 µM	68.6 ± 1.25 µM						
O=C(N/N=C/c1ccccc1O)c1ccc(-c2ccc(F)cc2F)o1 [(E)-2-hydroxybenzaldehyde-5-(2,4-difluorophenyl)-2-furoyl hydrazone]							16.4 µM					
N.N.[Cl][Pt][Cl] [Cisplatin, cisplatin, reference compound]								8.75 ± 0.24 µM	6.42 ± 0.18 µM	1.94 ± 0.2 µM	12.7 ± 0.33 µM	20.8 ± 0.83 µM
CC(C)c1ccc2c(c1)CC[C@H]1[C@](C)(C(=O)O)CCC[C@]21C [DHA, dehydroabietic acid]		88.64 ± 0.73 µM	80.4 ± 0.84 µM	37.4 ± 0.64 µM	46.7 ± 0.55 µM	> 100 µM						
COc1cccc2c1C(=O)c1c(O)c3c(c(O)c1C2=O)C[C@@](O)(C(=O)CO)C[C@@H]3O[C@H]1C[C@H](N)[C@H](O)[C@H](C)O1 [doxorubicin]							53.3 µM					
